Literature values, collected in patent publication US20110123642A1 (priority 2008, published 2011).

SMILES | pKa | pKa^1 | pKa^2 | pKa^3 | pKa^4
O=C(O)CN(CC(=O)O)CC(=O)O [NTA, reference compound] | 9.7 |  |  |  | 
O=C([O-])CC[C@@H](C(=O)[O-])N(CC(=O)[O-])CC(=O)[O-].[Na+].[Na+].[Na+].[Na+] [GLDA, L-glutamic acid-N,N-diacetic acid, tetrasodium salt] | 9.4 | 9.4 | 5.0 | 3.5 | 2.6
O=C(O)CN(CCN(CC(=O)O)CC(=O)O)CC(=O)O [EDTA, reference compound] | 10.2 |  |  |  | 
